One compound from patent US20240252497A1, “USE OF COMPLEMENT FACTOR D INHIBITOR FOR TREATMENT OF GEOGRAPHIC ATROPHY SECONDARY TO AGE-RELATED MACULAR DEGENERATION” (Alexion Pharmaceuticals, Inc., priority 2021, published 2024) can be followed below.

The nature of data set [1]: Ocular distribution of Compound 1 after oral administration. In kind it is in vivo. The text has this:
As an orally administered small molecule, Compound 1 is advantageous over therapeutic agents being investigated for the use in treating GA, which rely in intravitreal administration. In this regard, oral CFD inhibitors, such as Compound 1, not only provide GA patients with a more convenient and accessible option for therapy, but also help reduce the patient and caregiver burden for by lowering the need for clinical visits and minimize the risk of ocular injection-related adverse events. […] Given the overall pharmaceutical profile of Compound 1, the present disclosure provides that a treatment regimen with Compound 1 leads to better patient compliance and improved clinical outcomes in patients with GA.

Data set [2] in a line: MAD study (tolerability, liver enzymes). Particulars: high doses, after dosing was ceased. The data set is classed as in vivo, human. As for the experimental part:
The 100 mg BID, 200 mg BID, and 400 mg QD dose regimens proposed for this study are based on simulation results. […] Based on data from the literature, retina and choroid RPE on the retinal side are more likely to be the target eye tissues. However, the choroid RPE on the capillary bed side cannot be completely ruled out as a potential target. The proposed doses allow for the assessment of two different dosing intervals, i.e., BID vs QD. The 400 mg QD dosing regimen, if shown to be safe and effective, would be more convenient for patients and encourage better compliance relative to bid dosing. An up to 2-fold uncertainty of model prediction on PK and APH inhibition in the target eye tissues is anticipated as the physiological eye parameters in humans were translated from Dutch-Belted rabbits. […] The elevations were transient and not considered of clinical significance. […] A dose taper was instituted in subsequent studies as a risk mitigation measure.

Turning to `CC(=O)c1nn(CC(=O)N2C[C@H](F)C[C@H]2C(=O)Nc2cccc(Br)n2)c2ccc(-c3cnc(C)nc3)cc12` [Compound 1, (2S,4R)-1-(2-(3-acetyl-5-(2-methylpyrimidin-5-yl)-1H-indazol-1-yl)acetyl)-N-(6-bromopyridin-2-yl)-4-fluoropyrrolidine-2-carboxamide], the blood-retina barrier crossing entry in data set [1] is “cross the blood-retina barrier”. Moreover, the “retention in ocular tissues after oral administration” value in data set [1] (choroid and retinal pigment epithelium (RPE)) is on record as “selective retention in ocular tissues containing melanin”. Moreover, the ALT elevations result in data set [2] is given as “ALT elevations were observed at high doses in 2 subjects after dosing was ceased”.
